From ChEMBL document CHEMBL3046010, “Synthesis and pharmacological evaluation of 4-[2-hydroxy-3-(4-phenyl-piperazin-1-yl)-propoxy]-4-azatricyclo[5.2.1.02,6]dec-8-ene-3,5-dione” (Med Chem Res, 2008) come the findings set out here.

What all share (format): tissue-based
Experiment [1] concerns the target 5-hydroxytryptamine receptor 2A (Rattus norvegicus, UniProt P14842). Nature of the experiment: Displacement of [3H]Ketanserin from 5HT2A receptor in Rattus norvegicus (rat) cerebral cortex by filter binding assay. On the technique in general: Displacement assays read how much labelled ligand stays bound in the presence of the test substance.
The target in experiment [2] is Beta-1 adrenergic receptor (Rattus norvegicus, UniProt P18090). Description: Displacement of [3H]CGP12177 from beta1 adrenoreceptor in Rattus norvegicus (rat) cerebral cortex by liquid scintillation counting.
Chain of Beta-1 adrenergic receptor (P18090 whole entry): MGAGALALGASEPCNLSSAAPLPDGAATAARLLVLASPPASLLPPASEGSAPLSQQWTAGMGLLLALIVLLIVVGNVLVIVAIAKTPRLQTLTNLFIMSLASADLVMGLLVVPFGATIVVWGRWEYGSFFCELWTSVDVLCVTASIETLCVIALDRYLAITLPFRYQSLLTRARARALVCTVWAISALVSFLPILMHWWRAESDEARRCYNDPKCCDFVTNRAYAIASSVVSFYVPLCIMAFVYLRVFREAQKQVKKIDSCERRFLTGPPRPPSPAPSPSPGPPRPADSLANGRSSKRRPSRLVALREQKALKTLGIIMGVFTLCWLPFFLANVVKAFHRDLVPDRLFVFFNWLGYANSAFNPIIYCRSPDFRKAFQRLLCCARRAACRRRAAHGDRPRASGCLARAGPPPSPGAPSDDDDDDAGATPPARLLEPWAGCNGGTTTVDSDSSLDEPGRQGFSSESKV
The target of experiment [3] is T1, 5-hydroxytryptamine receptor 1A (Rattus norvegicus, UniProt P19327).
T1 sequence (P19327 whole entry): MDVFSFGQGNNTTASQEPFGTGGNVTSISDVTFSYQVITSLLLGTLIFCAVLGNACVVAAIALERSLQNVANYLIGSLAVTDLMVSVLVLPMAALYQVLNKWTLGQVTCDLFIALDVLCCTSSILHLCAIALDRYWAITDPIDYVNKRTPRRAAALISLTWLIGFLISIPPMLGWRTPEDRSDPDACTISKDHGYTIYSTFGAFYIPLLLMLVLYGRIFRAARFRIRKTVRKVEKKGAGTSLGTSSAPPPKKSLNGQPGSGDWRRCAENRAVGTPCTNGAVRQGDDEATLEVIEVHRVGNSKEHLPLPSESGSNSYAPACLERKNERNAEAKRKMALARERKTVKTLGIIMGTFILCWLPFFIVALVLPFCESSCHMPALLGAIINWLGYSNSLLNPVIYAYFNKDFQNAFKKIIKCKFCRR
Description: Displacement of [3H]8-OH-DPAT from 5HT1A receptor in Rattus norvegicus (rat) cerebral cortex after 15 min by filter binding assay.

Chain of 5-hydroxytryptamine receptor 2A (P14842 whole entry): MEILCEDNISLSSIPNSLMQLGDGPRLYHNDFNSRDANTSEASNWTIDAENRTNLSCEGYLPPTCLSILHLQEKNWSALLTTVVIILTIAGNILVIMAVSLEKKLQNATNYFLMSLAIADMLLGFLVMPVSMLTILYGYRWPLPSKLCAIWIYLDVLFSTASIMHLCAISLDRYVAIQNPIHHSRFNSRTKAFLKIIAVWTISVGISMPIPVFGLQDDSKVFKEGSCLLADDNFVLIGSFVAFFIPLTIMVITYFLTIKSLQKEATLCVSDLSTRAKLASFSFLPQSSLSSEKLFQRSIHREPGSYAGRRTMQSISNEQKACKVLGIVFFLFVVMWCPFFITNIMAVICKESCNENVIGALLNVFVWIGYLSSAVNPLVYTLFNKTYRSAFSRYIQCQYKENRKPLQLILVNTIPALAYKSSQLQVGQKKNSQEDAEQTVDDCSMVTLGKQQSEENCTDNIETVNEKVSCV

By Ki is commonly meant the equilibrium dissociation constant of an inhibitor or competing ligand from its target. The low end stands for a stronger hold on the target, the high end for a looser hold on the target. With `O=C1C2C3C=CC(C3)C2C(=O)N1OCC(O)CN1CCN(c2ccccc2)CC1` (stereo not drawn), the values for the Ki in experiment [1], in experiment [2] and in experiment [3] were 336 nM, 38.5 µM and 370 nM, respectively.
